Laboratory results: the supplement of paper PMC8617591

Experiments:
[1] = tested on: Mycobacterium tuberculosis Erdman (autoluminescent); test: total FIC50 (Loewe) at 50% inhibition, three-drug combination (log2); higher = more antagonistic
Method: (§1)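 DiaMOND equipotent three-drug combination dose responses (10 doses, 1.5- or 2-fold spacing, centred on IC90) against autoluminescent M. tuberculosis Erdman in 8 in vitro models. Read-out is OD600, or luminescence for the intracellular and dormancy models, normalised to untreated wells. Hill-fit Einf, AUC25 and GRinf are potency metrics; FIC50 and FIC90 are total Loewe fractional inhibitory concentrations as log2 (negative = synergy).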

[2] = tested on: Mycobacterium tuberculosis Erdman (autoluminescent); test: Einf, fitted maximum growth inhibition of three-drug combination (fraction); higher = stronger maximal inhibition
Method: as §1

[3] = tested on: Mycobacterium tuberculosis Erdman (autoluminescent); test: AUC25, normalised area under dose response up to IC25 (three-drug combination) (fraction (0-1)); higher = more potent at low dose
Method: as §1

[4] = tested on: Mycobacterium tuberculosis Erdman (autoluminescent); test: GRinf, maximum normalised growth rate inhibition (three-drug combination) (unitless (-1 to 1)); higher = less effect (negative = killing)
Method: as §1

[5] = tested on: Mycobacterium tuberculosis Erdman (autoluminescent); test: total FIC90 (Loewe) at 90% inhibition, three-drug combination (log2); higher = more antagonistic
Method: as §1

CC(C)/N=c1\cc2n(-c3ccc(Cl)cc3)c3ccccc3nc-2cc1Nc1ccc(Cl)cc1 [clofazimine] + NNC(=O)c1ccncc1 [isoniazid] + O=[N+]([O-])c1cn2c(n1)OC[C@@H](OCc1ccc(OC(F)(F)F)cc1)C2 [pretomanid]
Conditions | AUC25, [3] | Einf, [2] | GRinf, [4] | total FIC50, [1] | total FIC90, [5]
in vitro model: acidic pH 5.7, time point: constant (~7 days, model-specific) | 0.0904 | 0.772 | -0.0866 | -0.103 | –
in vitro model: acidic pH 5.7, time point: terminal (~4-5 doublings, model-specific) | 0.0916 | 0.963 | -0.274 | 0.278 | 0.567
in vitro model: intracellular J774, time point: constant = terminal | – | 0.976 | -0.35 | – | 0.28

Conditions | AUC25, [3] | Einf, [2] | GRinf, [4] | total FIC50, [1] | total FIC90, [5]
in vitro model: butyrate, time point: constant (~7 days, model-specific) | 0.106 | 0.965 | -0.205 | 0.629 | 1.4
in vitro model: butyrate, time point: terminal (~4-5 doublings, model-specific) | 0.0874 | 0.989 | -0.14 | 0.581 | 1.02
in vitro model: cholesterol 0.05 mM, time point: constant (~7 days, model-specific) | 0.119 | 0.713 | -0.0879 | 0.824 | –
in vitro model: cholesterol 0.05 mM, time point: terminal (~4-5 doublings, model-specific) | 0.0944 | 0.912 | -0.156 | 7.01 | 0.912
in vitro model: cholesterol-high 0.2 mM, time point: constant (~7 days, model-specific) | 0.102 | 0.971 | -0.31 | 0.301 | –
in vitro model: cholesterol-high 0.2 mM, time point: terminal (~4-5 doublings, model-specific) | 0.0894 | 1 | -0.709 | 0.306 | 0.374
in vitro model: dormancy (butyrate + nitrate, low O2), time point: constant (~7 days, model-specific) | 0.0958 | 0.93 | 0.217 | -0.236 | -0.894
in vitro model: dormancy (butyrate + nitrate, low O2), time point: terminal (~4-5 doublings, model-specific) | 0.0744 | 0.987 | -0.177 | -0.374 | -0.0746
in vitro model: standard 7H9 glycerol, time point: constant = terminal | 0.116 | 0.949 | -0.229 | 0.139 | 0.594
in vitro model: valerate, time point: constant (~7 days, model-specific) | 0.15 | 0.918 | -0.199 | 0.901 | 2.23
in vitro model: valerate, time point: terminal (~4-5 doublings, model-specific) | 0.0945 | 0.942 | -0.0153 | 0.511 | 2.01

CC(C)/N=c1\cc2n(-c3ccc(Cl)cc3)c3ccccc3nc-2cc1Nc1ccc(Cl)cc1 [clofazimine] + O=[N+]([O-])c1cn2c(n1)OC[C@@H](OCc1ccc(OC(F)(F)F)cc1)C2 [pretomanid] + CO[C@H]1/C=C/O[C@@]2(C)Oc3c(C)c(O)c4c(O)c(c(/C=N/N5CCN(C6CCCC6)CC5)c(O)c4c3C2=O)NC(=O)/C(C)=C\C=C\[C@H](C)[C@H](O)[C@@H](C)[C@@H](O)[C@@H](C)[C@H](OC(C)=O)[C@@H]1C [rifapentine]
Conditions | AUC25, [3] | Einf, [2] | GRinf, [4] | total FIC50, [1] | total FIC90, [5]
in vitro model: acidic pH 5.7, time point: constant (~7 days, model-specific) | 0.103 | 0.899 | -0.186 | 0.105 | –
in vitro model: acidic pH 5.7, time point: terminal (~4-5 doublings, model-specific) | 0.0882 | 0.993 | -0.236 | 0.264 | 0.423
in vitro model: intracellular J774, time point: constant = terminal | – | 0.989 | -0.655 | – | -0.198

Conditions | AUC25, [3] | Einf, [2] | GRinf, [4] | total FIC50, [1] | total FIC90, [5]
in vitro model: butyrate, time point: constant (~7 days, model-specific) | 0.108 | 0.944 | -0.17 | 0.542 | 0.896
in vitro model: butyrate, time point: terminal (~4-5 doublings, model-specific) | 0.0902 | 0.978 | -0.146 | 0.502 | 0.795
in vitro model: cholesterol 0.05 mM, time point: constant (~7 days, model-specific) | 0.125 | 0.719 | -0.154 | 1.34 | –
in vitro model: cholesterol 0.05 mM, time point: terminal (~4-5 doublings, model-specific) | 0.1 | 0.913 | -0.114 | 1.34 | 1.38
in vitro model: cholesterol-high 0.2 mM, time point: constant (~7 days, model-specific) | 0.101 | 0.93 | -0.434 | 1.29 | 2.04
in vitro model: cholesterol-high 0.2 mM, time point: terminal (~4-5 doublings, model-specific) | 0.104 | 1 | -0.886 | 1.49 | 1.76
in vitro model: dormancy (butyrate + nitrate, low O2), time point: constant (~7 days, model-specific) | 0.0611 | 0.948 | -0.0911 | 0.0191 | -1.71
in vitro model: dormancy (butyrate + nitrate, low O2), time point: terminal (~4-5 doublings, model-specific) | 0.0501 | 0.997 | -0.374 | -0.0775 | -0.279
in vitro model: standard 7H9 glycerol, time point: constant = terminal | 0.12 | 0.954 | -0.0887 | -0.289 | 1.7
in vitro model: valerate, time point: constant (~7 days, model-specific) | 0.155 | 0.893 | -0.158 | 1.22 | –
in vitro model: valerate, time point: terminal (~4-5 doublings, model-specific) | 0.106 | 0.953 | 0.0119 | 0.552 | 1.7

CC(C)/N=c1\cc2n(-c3ccc(Cl)cc3)c3ccccc3nc-2cc1Nc1ccc(Cl)cc1 [clofazimine] + O=[N+]([O-])c1cn2c(n1)OC[C@@H](OCc1ccc(OC(F)(F)F)cc1)C2 [pretomanid] + CO[C@H]1/C=C/O[C@@]2(C)Oc3c(C)c(O)c4c(O)c(c(/C=N/N5CCN(C)CC5)c(O)c4c3C2=O)NC(=O)/C(C)=C\C=C\[C@H](C)[C@H](O)[C@@H](C)[C@@H](O)[C@@H](C)[C@H](OC(C)=O)[C@@H]1C [rifampicin]
Conditions | AUC25, [3] | Einf, [2] | GRinf, [4] | total FIC50, [1] | total FIC90, [5]
in vitro model: acidic pH 5.7, time point: constant (~7 days, model-specific) | 0.113 | 0.916 | -0.179 | 0.218 | –
in vitro model: acidic pH 5.7, time point: terminal (~4-5 doublings, model-specific) | 0.073 | 0.989 | -0.161 | 0.575 | 0.276
in vitro model: intracellular J774, time point: constant = terminal | – | 0.992 | -0.685 | – | -0.529

Conditions | AUC25, [3] | Einf, [2] | GRinf, [4] | total FIC50, [1] | total FIC90, [5]
in vitro model: butyrate, time point: constant (~7 days, model-specific) | 0.104 | 0.936 | -0.134 | 0.432 | 0.0534
in vitro model: butyrate, time point: terminal (~4-5 doublings, model-specific) | 0.0947 | 0.977 | -0.128 | 0.197 | 0.399
in vitro model: cholesterol 0.05 mM, time point: constant (~7 days, model-specific) | 0.124 | 0.696 | -0.174 | 1.03 | –
in vitro model: cholesterol 0.05 mM, time point: terminal (~4-5 doublings, model-specific) | 0.0924 | 0.844 | 0.0526 | 1.18 | 0.826
in vitro model: cholesterol-high 0.2 mM, time point: constant (~7 days, model-specific) | 0.0944 | 0.891 | -0.242 | 1.29 | 1.16
in vitro model: cholesterol-high 0.2 mM, time point: terminal (~4-5 doublings, model-specific) | 0.0908 | 1 | -0.716 | 1.57 | 1.36
in vitro model: dormancy (butyrate + nitrate, low O2), time point: constant (~7 days, model-specific) | 0.0988 | 0.938 | 0.038 | -0.678 | -1.51
in vitro model: dormancy (butyrate + nitrate, low O2), time point: terminal (~4-5 doublings, model-specific) | 0.0571 | 0.993 | -0.337 | -0.503 | -0.477
in vitro model: standard 7H9 glycerol, time point: constant = terminal | 0.11 | 0.93 | 0.0153 | -0.349 | -0.0486
in vitro model: valerate, time point: constant (~7 days, model-specific) | 0.0751 | 0.857 | 0.0268 | 0.706 | –
in vitro model: valerate, time point: terminal (~4-5 doublings, model-specific) | 0.0551 | 0.929 | 0.0406 | 0.736 | 0.763
